Data published in ChEMBL document CHEMBL3351647, “Organochalcogen compounds from glycerol: synthesis of new antioxidants” (Bioorg Med Chem, 2014).

Tests used:
Assay type in all cases: physicochemical; call rule not given here
[1] = Antioxidant activity assessed as inhibition of Fe2+/ascorbic acid-induced linoleic acid peroxidation at 50 uM by spectrophotometry relative to control; set-up: scale not given: the % may be the effect or the level left
[2] = Antioxidant activity assessed as inhibition of Fe2+/ascorbic acid-induced linoleic acid peroxidation at 500 uM by spectrophotometry relative to control; set-up: scale not given: the % may be the effect or the level left
[3] = Antioxidant activity assessed as inhibition of Fe2+/ascorbic acid-induced linoleic acid peroxidation at 5 uM by spectrophotometry relative to control; set-up: scale not given: the % may be the effect or the level left
[4] = Antioxidant activity assessed as […] scavenging activity by measuring NaNO2 at 50 uM by spectrophotometry
[5] = Antioxidant activity assessed as ABTS radical scavenging activity at 25 uM by spectrophotometry relative to control
[6] = Antioxidant activity assessed as […] scavenging activity by measuring NaNO2 at 500 uM by spectrophotometry
[7] = Antioxidant activity assessed as DPPH radical scavenging activity at 50 uM by spectrophotometry relative to control
[8] = Antioxidant activity assessed as ABTS radical scavenging activity at 10 uM by spectrophotometry relative to control
[9] = Antioxidant activity assessed as DPPH radical scavenging activity at 100 uM by spectrophotometry relative to control
[10] = Antioxidant activity assessed as DPPH radical scavenging activity at 10 uM by spectrophotometry relative to control
[11] = Antioxidant activity assessed as inhibition of Fe2+/ascorbic acid-induced linoleic acid peroxidation at 1 uM by spectrophotometry relative to control; set-up: scale not given: the % may be the effect or the level left
[12] = Antioxidant activity assessed as ABTS radical scavenging activity at 50 uM by spectrophotometry relative to control
[13] = Antioxidant activity assessed as ABTS radical scavenging activity at 500 uM by spectrophotometry relative to control
[14] = Antioxidant activity assessed as hydroxyl radical scavenging activity
[15] = Antioxidant activity assessed as ferric ion reducing activity at 10 to 500 uM after 40 mins by spectrophotometry relative to control
[16] = Antioxidant activity assessed as DPPH radical scavenging activity at 500 uM by spectrophotometry relative to control
[17] = Antioxidant activity assessed as inhibition of Fe2+/ascorbic acid-induced linoleic acid peroxidation at 100 uM by spectrophotometry relative to control; set-up: scale not given: the % may be the effect or the level left
[18] = Antioxidant activity assessed as […] scavenging activity by measuring NaNO2 at 100 uM by spectrophotometry
[19] = Antioxidant activity assessed as ABTS radical scavenging activity at 100 uM by spectrophotometry relative to control
[20] = Antioxidant activity assessed as inhibition of Fe2+/ascorbic acid-induced linoleic acid peroxidation at 10 uM by spectrophotometry relative to control; set-up: scale not given: the % may be the effect or the level left
[21] = Antioxidant activity assessed as […] scavenging activity by measuring NaNO2 at 10 uM by spectrophotometry
[22] = Antioxidant activity assessed as ABTS radical scavenging activity by spectrophotometry relative to control
[23] = Antioxidant activity assessed as ABTS radical scavenging activity at 5 uM by spectrophotometry relative to control
[24] = Antioxidant activity assessed as ABTS radical scavenging activity at 1 uM by spectrophotometry relative to control
[25] = Antioxidant activity assessed as superoxide dismutase-like activity
[26] = Antioxidant activity assessed as inhibition of Fe2+/ascorbic acid-induced linoleic acid peroxidation by spectrophotometry relative to control
[27] = Antioxidant activity assessed as DPPH radical scavenging activity by spectrophotometry relative to control

Structure (SMILES)	Activity [1] [%]	Activity [2] [%]	Activity [3] [%]	Activity [4] [µM]	Activity [5] [%]	Activity [6] [µM]	Activity [7] [%]	Activity [8] [%]	Activity [9] [%]	Activity [10] [%]	Activity [11] [%]	Activity [12] [%]	Activity [13] [%]	Activity [14]	Activity [15]	Activity [16] [%]	Activity [17] [%]	Activity [18] [µM]	Activity [19] [%]	Activity [20] [%]	other results
CC1(C)OCC(CO)O1 (stereo not given)	72.35	76.4	66.2	55.45	0	54.47	0.98	0	0.98	0.54	72.67	0.85	9.84	Not Active	Not Active	0.98	72.48	52.22	1.7	79.89	Activity [21]: 56.6 µM
CC1(C)OCC(CSc2ccccc2)O1 (stereo not given)	76.51	72.46	87.79	50.91	0	49.68	1.07	0.47	0.5	0.01	86.7	0.15	0.08	Not Active	Not Active	1.65	74.88	50.48	0.36	76.51	Activity [21]: 49.59 µM
CC1(C)OCC(C[Se]c2ccccc2)O1 (stereo not given)	89.97	81.22	94.34	52.5	0	49.65	0.63	0	0.63	0.98	88.37	1.19	4.75	Not Active	Not Active	1.3	86.55	51.95	1.15	86.97	Activity [21]: 54.43 µM
CC1(C)OCC(C[Te]c2ccccc2)O1 (stereo not given)	43.34	20.6	66.29	55.95	53.41	44.49	11.08	22.72	22.55	3.57	79.46	90.64	99.9	Not Active	Active	77.86	31.66	54.93	99.5	57.39	IC50 [22]: 24.5 µM; Activity [23]: 12.04%; Activity [24]: 2.18%; Activity [25]: Not Active; IC50 [26]: 24.5 µM; IC50 [27]: 309 µM; Activity [21]: 64.13 µM
